What was measured:
[1] = target: Heat shock protein HSP 90-alpha (Homo sapiens, UniProt P07900)
Endoplasmin = Endoplasmin (Homo sapiens, UniProt P14625)
Endoplasmin, sequence (P14625 whole entry): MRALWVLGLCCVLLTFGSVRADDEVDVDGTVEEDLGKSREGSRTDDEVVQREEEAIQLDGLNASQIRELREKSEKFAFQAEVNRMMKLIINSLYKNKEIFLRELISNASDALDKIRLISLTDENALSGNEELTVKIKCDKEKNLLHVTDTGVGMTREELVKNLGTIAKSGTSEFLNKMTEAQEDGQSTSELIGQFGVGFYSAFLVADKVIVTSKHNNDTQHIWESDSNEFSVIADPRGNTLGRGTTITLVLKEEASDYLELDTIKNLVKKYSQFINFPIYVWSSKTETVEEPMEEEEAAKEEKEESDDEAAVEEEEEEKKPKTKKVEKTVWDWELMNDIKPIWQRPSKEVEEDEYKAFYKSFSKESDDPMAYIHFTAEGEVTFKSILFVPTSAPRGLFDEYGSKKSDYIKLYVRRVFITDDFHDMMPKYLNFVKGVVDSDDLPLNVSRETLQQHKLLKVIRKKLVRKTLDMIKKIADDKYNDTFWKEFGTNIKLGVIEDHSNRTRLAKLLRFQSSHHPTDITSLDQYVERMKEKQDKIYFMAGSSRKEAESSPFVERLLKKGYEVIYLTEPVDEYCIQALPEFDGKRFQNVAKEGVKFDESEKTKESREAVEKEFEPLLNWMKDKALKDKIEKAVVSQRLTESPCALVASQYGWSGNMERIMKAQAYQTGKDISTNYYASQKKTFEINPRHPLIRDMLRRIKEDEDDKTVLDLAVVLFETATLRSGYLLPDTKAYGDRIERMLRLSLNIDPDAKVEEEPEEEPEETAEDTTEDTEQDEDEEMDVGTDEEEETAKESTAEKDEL

Structure (SMILES): COC(=O)c1c(O)cc(O)c(Cl)c1CCc1nccn1Cc1ccccc1F
- Kd [1]: 11400 nM
- Kd (Endoplasmin): 1360 nM

Structure (SMILES): CCc1ccsc1Cn1ccnc1CCc1c(Cl)c(O)cc(O)c1C(=O)OC
- Kd [1]: 6940 nM
- Kd (Endoplasmin): 720 nM

Structure (SMILES): COC(=O)c1c(O)cc(O)c(Cl)c1CCc1nccn1Cc1ccco1
- Kd [1]: 5910 nM
- Kd (Endoplasmin): 550 nM

Structure (SMILES): CCCOc1ccccc1Cn1ccnc1CCc1c(Cl)c(O)cc(O)c1C(=O)OC
- Kd [1]: 2300 nM
- Kd (Endoplasmin): 250 nM

Structure (SMILES): COC(=O)c1c(O)cc(O)c(Cl)c1CCc1nccn1Cc1ccc(C)cc1
- Kd [1]: 25200 nM
- Kd (Endoplasmin): 730 nM

Structure (SMILES): COC(=O)c1c(O)cc(O)c(Cl)c1CCc1nccn1Cc1ccccn1
- Kd [1]: 9920 nM
- Kd (Endoplasmin): 4940 nM

Structure (SMILES): COC(=O)c1c(O)cc(O)c(Cl)c1CCc1nccn1Cc1ccc(Cl)cc1
- Kd (Endoplasmin): 810 nM

Structure (SMILES): COC(=O)c1c(O)cc(O)c(Cl)c1CCc1nccn1Cc1ccc(C)s1
- Kd [1]: 5130 nM
- Kd (Endoplasmin): 680 nM

Structure (SMILES): COC(=O)c1c(O)cc(O)c(Cl)c1CCc1nccn1Cc1ccccc1C
- Kd [1]: 68100 nM
- Kd (Endoplasmin): 3000 nM

Structure (SMILES): COC(=O)c1c(O)cc(O)c(Cl)c1CCc1nccn1Cc1ccc(C)cc1OC
- Kd [1]: 72500 nM
- Kd (Endoplasmin): 2350 nM

Structure (SMILES): COC(=O)c1c(O)cc(O)c(Cl)c1CCc1nccn1Cc1ccccc1Cl
- Kd [1]: 8470 nM
- Kd (Endoplasmin): 1390 nM

Structure (SMILES): COC(=O)c1c(O)cc(O)c(Cl)c1CCc1nccn1Cc1cccs1
- Kd [1]: 3920 nM
- Kd (Endoplasmin): 470 nM

Structure (SMILES): C#Cc1ccc(Cn2ccnc2CCc2c(Cl)c(O)cc(O)c2C(=O)OC)cc1
- Kd [1]: 15800 nM
- Kd (Endoplasmin): 1400 nM

Structure (SMILES): COC(=O)c1c(O)cc(O)c(Cl)c1CCc1nccn1Cc1sccc1Cl
- Kd [1]: 3160 nM
- Kd (Endoplasmin): 760 nM

Structure (SMILES): C=Cc1ccsc1Cn1ccnc1CCc1c(Cl)c(O)cc(O)c1C(=O)OC
- Kd [1]: 36700 nM
- Kd (Endoplasmin): 750 nM

Structure (SMILES): COC(=O)c1c(O)cc(O)c(Cl)c1CCc1nccn1Cc1ccc(F)cc1
- Kd (Endoplasmin): 3200 nM

Structure (SMILES): COC(=O)c1c(O)cc(O)c(Cl)c1CCc1nccn1Cc1ccccc1OC
- Kd [1]: 53900 nM
- Kd (Endoplasmin): 1300 nM

Structure (SMILES): COC(=O)c1c(O)cc(O)c(Cl)c1CCc1nccn1Cc1ccccc1C(F)(F)F
- Kd [1]: 19300 nM
- Kd (Endoplasmin): 1530 nM

Structure (SMILES): COC(=O)c1c(O)cc(O)c(Cl)c1CCc1nccn1Cc1ccccc1OC(C)C
- Kd [1]: 240 nM
- Kd (Endoplasmin): 90 nM

Structure (SMILES): COC(=O)c1c(O)cc(O)c(Cl)c1CCc1nccn1Cc1cccnc1
- Kd (Endoplasmin): 4040 nM

Structure (SMILES): CCOc1ccccc1Cn1ccnc1CCc1c(Cl)c(O)cc(O)c1C(=O)OC
- Kd [1]: 8100 nM
- Kd (Endoplasmin): 200 nM

Structure (SMILES): COC(=O)c1c(O)cc(O)c(Cl)c1CCc1nccn1Cc1nccs1
- Kd [1]: 16000 nM
- Kd (Endoplasmin): 2500 nM

Structure (SMILES): COC(=O)c1c(O)cc(O)c(Cl)c1CCc1nccn1Cc1oc(C)cc1C
- Kd [1]: 9200 nM
- Kd (Endoplasmin): 350 nM

Structure (SMILES): COC(=O)c1c(O)cc(O)c(Cl)c1CCc1nccn1Cc1cccc(F)c1
- Kd [1]: 9630 nM
- Kd (Endoplasmin): 1530 nM

Structure (SMILES): COC(=O)c1c(O)cc(O)c(Cl)c1CCc1nccn1Cc1ccsc1
- Kd [1]: 6540 nM
- Kd (Endoplasmin): 2140 nM

Structure (SMILES): COC(=O)c1c(O)cc(O)c(Cl)c1CCc1nccn1Cc1ccno1
- Kd [1]: 810 nM
- Kd (Endoplasmin): 400 nM

Structure (SMILES): COC(=O)c1c(O)cc(O)c(Cl)c1CCc1nccn1Cc1ccc(C#N)cc1
- Kd [1]: 18200 nM
- Kd (Endoplasmin): 4700 nM

Structure (SMILES): COC(=O)c1c(O)cc(O)c(Cl)c1CCc1nccn1Cc1ccccc1Br
- Kd (Endoplasmin): 1600 nM

Structure (SMILES): COC(=O)c1c(O)cc(O)c(Cl)c1CCc1nccn1Cc1ccc(C)o1
- Kd (Endoplasmin): 650 nM

Structure (SMILES): COC(=O)c1c(O)cc(O)c(Cl)c1CCc1nccn1Cc1ccc(OC)cc1
- Kd [1]: > 150000 nM
- Kd (Endoplasmin): 6900 nM

Structure (SMILES): COC(=O)c1c(O)cc(O)c(Cl)c1CCc1nccn1Cc1cncnc1
- Kd [1]: 9920 nM
- Kd (Endoplasmin): 9180 nM

Structure (SMILES): CCc1ccccc1Cn1ccnc1CCc1c(Cl)c(O)cc(O)c1C(=O)OC
- Kd [1]: 38800 nM
- Kd (Endoplasmin): 810 nM

Structure (SMILES): COC(=O)c1c(O)cc(O)c(Cl)c1CCc1nccn1Cc1cc(Cl)cs1
- Kd [1]: 1800 nM
- Kd (Endoplasmin): 670 nM

Structure (SMILES): COC(=O)c1c(O)cc(O)c(Cl)c1CCc1nccn1Cc1ccc(Cl)s1
- Kd [1]: 34700 nM
- Kd (Endoplasmin): 930 nM

Structure (SMILES): C=Cc1ccoc1Cn1ccnc1CCc1c(Cl)c(O)cc(O)c1C(=O)OC
- Kd (Endoplasmin): 2360 nM

Structure (SMILES): COC(=O)c1c(O)cc(O)c(Cl)c1CCc1nccn1Cc1ccoc1
- Kd [1]: 3770 nM
- Kd (Endoplasmin): 1500 nM
